Eight molecules from US8883771B2, “Bivalent inhibitors of IAP proteins and therapeutic methods using the same” (The Regents of the University of Michigan, priority 2012, dated 2014) can be followed below.

Experiment [1] concerns the target XIAP linker-BIR2-BIR3 (residues 120-356) (Homo sapiens (Human), UniProt P98170). Kind of experiment: Fluorescence polarization (FP) based competitive binding assay, XIAP linker-BIR2-BIR3. Particulars: FP competitive assay, Smac-1F probe; read-out: Binding Affinities IC50 (nM) XIAP Protein. As for the experimental part: (§1) For cIAP-1 BIR3 and cIAP-2 BIR3 assays, a fluorescently labeled Smac mimetic (Smac-2F) was used as the fluorescent probe. The Kd values of Smac-2F to cIAP-1 BIR3 and cIAP-2 BIR3 were determined by monitoring the total fluorescence polarization of mixtures composed with the fluorescent probe at a fixed concentration and proteins with increasing concentrations up to full saturation. Fluorescence polarization values were measured using the Infinite M-1000 plate reader (Tecan U.S., Research Triangle Park, N.C.) in Microfluor 2 96-well, black, round-bottom plates (Thermo Scientific). To each well, 1 nM of SMAC-2F and increasing concentrations of protein were added to a final volume of 125 μl in the assay buffer (100 mM potassium phosphate, pH 7.5, 100 μg/ml bovine γ-globulin, 0.02% sodium azide, Invitrogen, with 4% DMSO). Plates were incubated at room temperature for 1-2 hours and mixed with gentle shaking to assure equilibrium. […] Equilibrium dissociation constants (Kd) were then calculated by fitting the sigmoidal dose-dependent FP increases as a function of protein concentrations using Graphpad Prism 5.0 software (Graphpad Software, San Diego, Calif.).
(§2) Mixtures of 5 μl of the tested compounds in DMSO and 120 μl of preincubated protein/tracer complex in the assay buffer (100 mM potassium phosphate, pH 7.5, 100 μg/ml bovine γ-globulin, 0.02% sodium azide, Invitrogen) were added into assay plates and incubated at room temperature for 2 hours with gentle shaking. Final concentrations of proteins and probes were 3 nM and 1 nM, 5 nM and 1 nM for assays for cIAP-1 BIR3 and cIAP-2 BIR3, respectively. […] FP values were measured as described above. IC50 values were determined by nonlinear regression fitting of the competition curves. The Ki values of competitive inhibitors were calculated using the derived equation described previously, based upon the measured IC50 values, the Kd values of the probe to different proteins, and the concentrations of the proteins and probes in the competitive assays.
The FP-based assay for XIAP linker-BIR2-BIR3 protein was performed with the same procedures. In this assay, a bivalent fluorescently tagged peptidic Smac mimetic (Smac-1F) was used as the fluorescent probe whose Kd value to XIAP linker-BIR2-BIR3 was determined similarly through the saturation experiments. 0.01% of Triton X-100 was added in the assay buffer to achieve stable fluorescence and polarization value of the dimeric fluorescent probe. Final protein and probe concentrations utilized in the competitive assay were 3 nM and 1 nM, respectively.
(Fluorescence polarisation rises when a labelled molecule tumbles more slowly, as on binding a larger partner.)

Experiment [2] concerns the target cIAP1-BIR3 (residues 253-363) (Homo sapiens (Human), UniProt Q13490). Kind of experiment: Fluorescence polarization (FP) based competitive binding assay, cIAP1-BIR3. Particulars: Smac-2F probe, read-out: Binding Affinities IC50 (nM) cIAP1 Protein. As for the experimental part:
as §1, §2

The target of experiment [3] is cIAP-2 BIR3 (residues 238-349) (Homo sapiens (Human), UniProt Q13489). Description: Fluorescence polarization (FP) based competitive binding assay, cIAP-2 BIR3. Conditions: FP competitive assay, Smac-2F probe; read-out: Binding Affinities IC50 (nM) cIAP2 Protein. The procedure:
as §1, §2

The test system of experiment [4] is MDA-MB-231 breast cancer cell line. Description: Inhibition of cell growth in MDA-MB-231 breast cancer cell line. The experiment is classed as cell-based, human.
In experiment [5] the test system is SK-OV-3 ovarian cancer cell line. Kind of experiment: Inhibition of cell growth in SK-OV-3 ovarian cancer cell line. The format is cell-based, human.
Setting [6] is: Homo sapiens, MDA-MB-231, MDA-MB-231 breast cancer cell line.
[7] abbreviates: Homo sapiens, SK-OV-3, SK-OV-3 ovarian cancer cell line.
[8] abbreviates: Homo sapiens, MDA-MB-231 breast cancer cell line.
Setting [9] is: Homo sapiens, SK-OV-3 ovarian cancer cell line.

Bounds are passed on as bounds.

As for `CN[C@@H](C)C(=O)N[C@H]1CN(C(=O)NCCCCCCNC(=O)N2CC[C@H]3CC[C@@H](C(=O)N[C@H]4CCCC[C@@H]4c4ccccc4)N3C(=O)[C@@H](NC(=O)[C@H](C)NC)C2)CC[C@H]2CCC(C(=O)N[C@H]3CCCC[C@@H]3c3ccccc3)N2C1=O` (stereo in doubt) [Example 40], the IC50 in experiment [1] is below 3000 nM; in experiment [2], below 3000 nM; in experiment [3], below 3000 nM; in experiment [4] (MDA-MB-231 breast cancer cell line), below 10000 nM; in experiment [5] (SK-OV-3 ovarian cancer cell line) it was below 10000 nM.
As to `CN[C@@H](C)C(=O)N[C@H]1CN(C(=O)NCCCCCCNC(=O)N2CC[C@H]3CC[C@@H](C(=O)N[C@H]4CCC[C@@H]4c4ccccc4)N3C(=O)[C@@H](NC(=O)[C@H](C)NC)C2)CC[C@H]2CCC(C(=O)N[C@H]3CCC[C@@H]3c3ccccc3)N2C1=O` (stereo in doubt) [Example 42], the IC50 in experiment [1] was below 1000 nM; in experiment [2], below 1000 nM; in experiment [3], below 3000 nM; in experiment [4] (setting [6]), below 1000 nM; in experiment [5] (setting [7]), below 1000 nM.
For the molecule `CN[C@@H](C)C(=O)N[C@H]1CN(C(=O)NCCCCCCNC(=O)N2CC[C@H]3CC[C@@H](C(=O)N[C@@H]4CCC[C@H]4c4ccccc4)N3C(=O)[C@@H](NC(=O)[C@H](C)NC)C2)CC[C@H]2CCC(C(=O)N[C@@H]3CCC[C@H]3c3ccccc3)N2C1=O` (stereo in doubt) [Example 43], the IC50 in experiment [1] was below 3000 nM; in experiment [2], below 3000 nM; in experiment [3], below 3000 nM; in experiment [4] (setting [6]), below 1000 nM; in experiment [5] (setting [7]), below 1000 nM.
In the case of `CN[C@@H](C)C(=O)N[C@H]1CN(C(=O)NCCCCCCNC(=O)N2CC[C@H]3CC[C@@H](C(=O)N[C@@H]4CCC[C@@H]4c4ccccc4)N3C(=O)[C@@H](NC(=O)[C@H](C)NC)C2)CC[C@H]2CCC(C(=O)N[C@@H]3CCC[C@@H]3c3ccccc3)N2C1=O` (stereo in doubt) [Example 44], the IC50 in experiment [1] is below 1000 nM; in experiment [2], below 1000 nM; in experiment [3], below 3000 nM; in experiment [4] (setting [6]) it was below 1000 nM; in experiment [5] (setting [7]), below 1000 nM.
For `CN[C@@H](C)C(=O)N[C@H]1CN(C(=O)NCCCCCCCCNC(=O)N2CC[C@H]3CC[C@@H](C(=O)N[C@@H]4CCCc5ccccc54)N3C(=O)[C@@H](NC(=O)[C@H](C)NC)C2)CC[C@H]2CCC(C(=O)N[C@@H]3CCCc4ccccc43)N2C1=O` (stereo partly shown) [Example 4], the IC50 was below 10 nM in experiment [1]; below 100 nM in experiment [2]; below 100 nM in experiment [3]; below 100 nM in experiment [4] (setting [8]); below 100 nM in experiment [5] (setting [9]).
On to `CN[C@@H](C)C(=O)N[C@H]1CN(C(=O)Nc2ccc(NC(=O)N3CC[C@H]4CC[C@@H](C(=O)N[C@@H]5CCCc6ccccc65)N4C(=O)[C@@H](NC(=O)[C@H](C)NC)C3)cc2)CC[C@H]2CCC(C(=O)N[C@@H]3CCCc4ccccc43)N2C1=O` (stereo partly shown) [Example 5], for which the IC50 in experiment [1] is below 10 nM; in experiment [2] it was below 100 nM; in experiment [3] it was below 100 nM; in experiment [4] (setting [6]), below 100 nM; in experiment [5] (setting [7]) it was below 100 nM.
`CN[C@@H](C)C(=O)N[C@H]1CN(C(=O)NCc2cccc(CNC(=O)N3CC[C@H]4CC[C@@H](C(=O)N[C@@H]5CCCc6ccccc65)N4C(=O)[C@@H](NC(=O)[C@H](C)NC)C3)c2)CC[C@H]2CCC(C(=O)N[C@@H]3CCCc4ccccc43)N2C1=O` (stereo partly shown) [Example 6]: the IC50 in experiment [1] is below 10 nM; in experiment [2], below 100 nM; in experiment [3], below 100 nM; in experiment [4] (setting [8]) it was below 100 nM; in experiment [5] (setting [9]), below 100 nM.
On to `CN[C@@H](C)C(=O)N[C@H]1CN(S(=O)(=O)CC/C=C/CCS(=O)(=O)N2CC[C@H]3CC[C@@H](C(=O)NC(c4ccccc4)c4ccccc4)N3C(=O)[C@@H](NC(=O)[C@H](C)NC)C2)CC[C@H]2CCC(C(=O)NC(c3ccccc3)c3ccccc3)N2C1=O` (stereo partly shown) [Example 7], for which the 50% inhibitory concentration (IC50) in experiment [1] is below 10 nM; in experiment [2] it was below 300 nM; in experiment [3] it was below 300 nM; in experiment [4] (setting [8]), below 1000 nM; in experiment [5] (setting [9]) it was below 1000 nM.

A word on the IC50: it is the concentration that inhibits the measured activity by half.
